Data: patent US7820646B2, “Cyclized derivatives as Eg-5 inhibitors” (Novartis Vaccines and Diagnostics, Inc., priority 2007, dated 2010)

What was measured:
[1] = molecular target: T1, motor domain of human KSP (Eg 5, KNSL1) (Homo sapiens, UniProt P52732); assay: Assay for determining KSP activity (microtubule-stimulated ATPase, Biomol Green); details: KSP motor domain 45 nM, microtubules 35 μg/mL, 1 hour at RT; read-out: Biochemical Activity IC50
T1 construct: KSP motor protein (i.e., the KSP motor domain); made in house
T1 sequence (P52732 18-359 limits assumed): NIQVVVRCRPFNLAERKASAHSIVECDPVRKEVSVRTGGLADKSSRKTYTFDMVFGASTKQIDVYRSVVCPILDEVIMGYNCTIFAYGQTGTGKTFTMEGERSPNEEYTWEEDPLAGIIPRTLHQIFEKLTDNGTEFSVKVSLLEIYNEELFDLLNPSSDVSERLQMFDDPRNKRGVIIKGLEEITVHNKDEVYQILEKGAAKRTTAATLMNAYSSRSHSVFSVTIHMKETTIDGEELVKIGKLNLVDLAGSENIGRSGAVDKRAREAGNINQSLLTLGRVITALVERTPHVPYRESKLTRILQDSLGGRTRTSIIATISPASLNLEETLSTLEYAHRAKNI
Source text: This example provides a representative in vitro assay for determining KSP activity in vitro. Purified microtubules obtained from bovine brain were purchased from Cytoskeleton Inc. (Denver, Colo., USA). The motor domain of human KSP (Eg 5, KNSL1) was cloned, expressed, and purified to greater than 95% homogeneity. Biomol Green was purchased from Affinity Research Products Ltd. (Matford Court, Exeter, Devon, United Kingdom). Microtubules and KSP motor protein (i.e., the KSP motor domain) were diluted in assay buffer (20 mM Tris-HCl (pH 7.5), 1 mM MgCl2, 10 mM DTT and 0.25 mg/mL BSA) to a final concentration of 35 μg/mL microtubules and 45 nM KSP. The microtubule/KSP mixture was then pre-incubated at 37° C. for 10 min to promote the binding of KSP to microtubules.
To each well of the testing plate (384-well plate) containing 1.25 μL of inhibitor or test compound in DMSO (or DMSO only in the case of controls) were added 25 μL of ATP solution (ATP diluted to a concentration of 300 μM in assay buffer) and 25 μL of the above-described microtubule/KSP solution. The plates were incubated at RT for 1 hour. Following incubation, 65 μL of Biomol Green (a malachite green-based dye that detects the release of inorganic phosphate) was added to each well. The plates were incubated for an additional 5-10 minutes then the absorbance at 630 nm was determined using a Victor II plate reader. The amount of absorbance at 630 nm corresponded to the amount of KSP activity in the samples. The IC50 of each inhibitor or test compound was then determined based on the decrease in absorbance at 630 nm at each concentration, via nonlinear regression using either XLFit for Excel or Prism data analysis software by GraphPad Software Inc.

HCT-15 colon carcinoma = assay: Inhibition of cellular proliferation in tumor cell lines (CellTiter Glo), HCT-15; assay type: cell-based; details: Homo sapiens; HCT-15, 72 hours of continuous compound exposure; read-out: Cell Base Activity GI50 HCT-15
Procedure: (§1) Cells are plated in 96-well plates at densities of about 500 cells per well of a 96-well plate and are allowed to grow for 24 hours. The cells are then treated with various concentrations of compounds for 72 hours. Then, 100 μl of CellTiter Glo is added. CellTiter Glo is a tetrazolium-based assay using the reagent 3-(4,5-dimethylthiazol-2-yl) 5-(3-carboxymethoxyphenyl)-2-(4-sulfophenyl)-2H-tetrazolium (MTS) (U.S. Pat. No. 5,185,450) (see Promega product catalog #G3580, CellTiter 96 Aqueous One Solution Cell Proliferation Assay). The cells are then incubated in the dark for 30 minutes. The amount of luminescence is determined for each well using a Walloc Trilux plate reader, which correlates with the number of cells per well. The number of viable cells in the wells that receive only DMSO (0.5%) serve as an indication of 0% inhibition, while wells without cells serve as 100% inhibition of cell growth. The compound concentration that results in a 50% growth inhibition (GI50) is determined graphically from sigmoidal dose-response curves of log-transformed dose values versus cell counts (percent of control) at 72 hours of continuous compound exposure.
(§2) The cell lines used are listed below.
(§3) The cell proliferation assay is performed as described above.

HCT-116 colon carcinoma = assay: Inhibition of cellular proliferation in tumor cell lines (CellTiter Glo), HCT-116; assay type: cell-based; details: Homo sapiens; HCT-116, 72 hours of continuous compound exposure; read-out: Cell Base Activity GI50 HCT-116
Procedure: as §1, §2, §3

parental cell line = assay: Inhibition of cellular proliferation in tumor cell lines (CellTiter Glo), KB3.1; assay type: cell-based; details: Homo sapiens, KB 3-1; KB3.1, 72 hours of continuous compound exposure; read-out: Cell Base Activity GI50 KB3.1
Procedure: as §1, §2, §3

[2] = tested on: KB8.5 (KB85 - p-glycoprotein associated multi-drug resistant cell line); assay: Inhibition of cellular proliferation in tumor cell lines (CellTiter Glo), KB8.5; assay type: cell-based; details: KB8.5, 72 hours of continuous compound exposure; read-out: Cell Base Activity GI50 KB8.5
Procedure: as §1, §2, §3

Compound | IC50 [1] [µM] | GI50 (HCT-15 colon carcinoma) [µM] | GI50 (HCT-116 colon carcinoma) [µM] | GI50 (parental cell line) [µM] | GI50 [2] [µM]
CC(C)(C)[C@H](c1nc(-c2ccccc2)cn1Cc1ccccc1)N1C[C@@H](CN)COCC1=O [Compound 25, (6R)-6-(aminomethyl)-4-[(1R)-1-(1-benzyl-4-phenyl-1H-imidazol-2-yl)-2,2-dimethylpropyl]-1,4-oxazepan-3-one] | ≤ 0.1 | 0.1 to 1 | ≤ 0.1 | ≤ 0.1 | 0.1 to 1
CC(C)(C)[C@H](c1nc(-c2ccccc2)cn1Cc1ccccc1)N1C[C@H](CN)NC(=O)C1=O [Compound 17, (5S)-5-(aminomethyl)-1-[(1R)-1-(1-benzyl-4-phenyl-1H-imidazol-2-yl)-2,2-dimethylpropyl]piperazine-2,3-dione] | ≤ 0.1 | > 1 | > 1 | > 1 | > 1
CC(C)(C)[C@H](c1nc(-c2ccccc2)cn1Cc1ccccc1)N1C[C@@H](CN)OCCC1=O [Compound 23, (2R)-2-(aminomethyl)-4-[(1R)-1-(1-benzyl-4-phenyl-1H-imidazol-2-yl)-2,2-dimethylpropyl]-1,4-oxazepan-5-one] | 0.1 to 1 | > 1 | 0.1 to 1 | > 1 | 0.1 to 1
CC(C)(C)[C@H](c1nc(-c2ccccc2)cn1Cc1ccccc1)N1C[C@@H](CN)OCC1=O [Compound 7, (6R)-6-(aminomethyl)-4-[(1R)-1-(1-benzyl-4-phenyl-1H-imidazol-2-yl)-2,2-dimethylpropyl]morpholin-3-one] | ≤ 0.1 | 0.1 to 1 | 0.1 to 1 | 0.1 to 1 | 0.1 to 1
C[C@@H]1O[C@H](CN)CN([C@@H](c2nc(-c3cccc(F)c3)cn2Cc2ccccc2)C(C)(C)C)C1=O [Compound 14, (2S,6R)-6-(aminomethyl)-4-{(1R)-1-[1-benzyl-4-(3-fluorophenyl)-1H-imidazol-2-yl]-2,2-dimethylpropyl}-2-methylmorpholin-3-one] | > 1 | > 1 | > 1 | > 1 | > 1
CC(C)(C)[C@H](c1nc(-c2ccccc2)cn1Cc1ccccc1)N1CC(CCN)OC1=O (stereo in doubt) [Compound 1, (5R)-5-(2-aminoethyl)-3-[(1R)-1-(1-benzyl-4-phenyl-1H-imidazol-2-yl)-2,2-dimethylpropyl]-1,3-oxazolidin-2-one] | 0.1 to 1 | > 1 | 0.1 to 1 | 0.1 to 1 | > 1
CC(C)[C@H](c1nc(-c2cccc(Cl)c2)cn1Cc1ccccc1)N1C[C@H](CN)OCC1=O [Compound 9, (6S)-6-(aminomethyl)-4-{(1R)-1-[1-benzyl-4-(3-chlorophenyl)-1H-imidazol-2-yl]-2-methylpropyl}morpholin-3-one] | > 1 | 0.1 to 1 | 0.1 to 1 | 0.1 to 1 | > 1
CC(C)(C)[C@H](c1nc(-c2cccc(F)c2)cn1Cc1ccccc1)N1C[C@@H](CN)COCC1=O [Compound 27, (6R)-6-(aminomethyl)-4-{(1R)-1-[1-benzyl-4-(3-fluorophenyl)-1H-imidazol-2-yl]-2,2-dimethylpropyl}-1,4-oxazepan-3-one] | ≤ 0.1 | 0.1 to 1 | ≤ 0.1 | ≤ 0.1 | ≤ 0.1
CC(C)(C)[C@H](c1nc(-c2ccccc2)cn1Cc1ccccc1)N1C[C@@H](CN)NC(=O)C1=O [Compound 16, (5R)-5-(aminomethyl)-1-[(1R)-1-(1-benzyl-4-phenyl-1H-imidazol-2-yl)-2,2-dimethylpropyl]piperazine-2,3-dione] | ≤ 0.1 | > 1 | 0.1 to 1 | 0.1 to 1 | > 1
CC(C)(C)[C@H](c1nc(-c2cccc(F)c2)cn1Cc1cccc(F)c1)N1C[C@H](CN)COCC1=O [Compound 29, (6S)-6-(aminomethyl)-4-{(1R)-1-[1-(3-fluorobenzyl)-4-(3-fluorophenyl)-1H-imidazol-2-yl]-2,2-dimethylpropyl}-1,4-oxazepan-3-one] | ≤ 0.1 | 0.1 to 1 | 0.1 to 1 | 0.1 to 1 | 0.1 to 1
CN1C(=O)C(=O)N([C@@H](c2nc(-c3ccccc3)cn2Cc2ccccc2)C(C)(C)C)C[C@H]1CN [Compound 18, (5R)-5-(aminomethyl)-1-[(1R)-1-(1-benzyl-4-phenyl-1H-imidazol-2-yl)-2,2-dimethylpropyl]-4-methylpiperazine-2,3-dione] | ≤ 0.1 | 0.1 to 1 | 0.1 to 1 | 0.1 to 1 | > 1
